The IC50 is the concentration that gives 50% inhibition.

Where a name gives a salt, the structure may show the parent alone.

Drawing on patent publication US20210238192A1, “VASCULAR ADHESION PROTEIN-1 (VAP-1) MODULATORS AND THERAPEUTIC USES THEREOF” (Blade Therapeutics, Inc., priority 2018, published 2021), this text covers IC50 for seven compounds.

The first experiment addresses T1, Human VAP-1 (Homo sapiens, UniProt Q16853).
T1 sequence (Q16853 1-763): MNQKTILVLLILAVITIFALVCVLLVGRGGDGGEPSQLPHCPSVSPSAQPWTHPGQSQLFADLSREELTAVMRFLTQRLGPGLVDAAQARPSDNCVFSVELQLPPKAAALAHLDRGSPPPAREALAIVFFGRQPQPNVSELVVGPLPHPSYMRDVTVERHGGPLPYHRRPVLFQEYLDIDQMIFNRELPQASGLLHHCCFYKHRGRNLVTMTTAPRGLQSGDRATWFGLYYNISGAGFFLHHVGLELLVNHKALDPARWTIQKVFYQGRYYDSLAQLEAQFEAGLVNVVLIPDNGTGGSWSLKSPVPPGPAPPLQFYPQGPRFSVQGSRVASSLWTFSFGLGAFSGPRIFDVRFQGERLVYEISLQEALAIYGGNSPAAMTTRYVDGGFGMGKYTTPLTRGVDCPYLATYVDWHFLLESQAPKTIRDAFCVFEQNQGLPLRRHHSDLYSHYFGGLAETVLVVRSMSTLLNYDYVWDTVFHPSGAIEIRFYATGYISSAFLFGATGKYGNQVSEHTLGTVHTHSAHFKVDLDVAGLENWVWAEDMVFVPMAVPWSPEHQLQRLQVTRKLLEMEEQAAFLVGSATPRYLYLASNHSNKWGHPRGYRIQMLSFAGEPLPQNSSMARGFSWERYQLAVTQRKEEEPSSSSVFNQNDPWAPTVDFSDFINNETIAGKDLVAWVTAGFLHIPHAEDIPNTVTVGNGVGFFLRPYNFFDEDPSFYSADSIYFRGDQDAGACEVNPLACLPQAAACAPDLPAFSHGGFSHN
As to the kind of experiment: VAP-1 inhibition assay (Amplex Red continuous fluorescence assay). It counts as biochemical. As to conditions: 30 min pre-incubation at 37° C.; substrate benzylamine; read-out: Human VAP-1 IC50. The essentials: (§1)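 Continuous Amplex Red/HRP fluorescence read of H2O2 (ex/em 510/565 nm, 5 min). Substrates and buffers: VAP-1 benzylamine, […] sodium phosphate pH 7.4, 30 min 37° C preincubation; MAO-A tyramine and MAO-B benzylamine, same buffer, room temp; DAO histamine, 50 mM HEPES pH 7.5, room temp. IC50 from 4-parameter fit of rates.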
As to `NC/C(=C\F)COc1ccc(-c2ncon2)cc1` [Compound 43, (E)-2-((4-(1,2,4-oxadiazol-3-yl)phenoxy)methyl)-3-fluoroprop-2-en-1-amine hydrochloride], the IC50 is under 3 µM.
Still for that read-out and setting: with `CCNC(=O)Oc1ccc(OC/C(=C\F)CN)cc1` [Compound 56, (Z)-4-((2-(aminomethyl)-3-fluoroalkyl)oxy)phenyl ethylcarbamate] the figure was under 3 µM.
`NC/C(=C\F)COc1ccc(-c2cocn2)cc1` [Compound 29, (E)-3-fluoro-2-((4-(oxazol-4-yl)phenoxy)methyl)prop-2-en-1-amine hydrochloride]: the IC50 was under 3 µM.
The same measure, in the same setting: with `CC(C)NC(=O)Nc1ccc(OC/C(=C/F)CN)cc1` [Compound 18, (E)-1-(4-((2-(aminomethyl)-3-fluoroalkyl)oxy)phenyl)-3-isopropylurea hydrochloride] the figure was under 3 µM; with `NC/C(=C/F)CNC(=O)Nc1ccccc1` [Compound 72], under 3 µM; with `NC/C(=C\F)COc1ccc(-c2ncco2)cc1` [Compound 25, (E)-3-fluoro-2-((4-(oxazol-2-yl)phenoxy)methyl)prop-2-en-1-amine hydrochloride], under 3 µM.
On the same count and under the same terms, with `NC/C(=C\F)COc1cccc2c1OCO2` [Compound 14, (E)-2-((benzo[d][1,3]dioxol-4-yloxy)methyl)-3-fluoroprop-2-en-1-amine hydrochloride] the figure was under 3 µM.

A further experiment has as its target T2, Human MAO-A (Homo sapiens, UniProt P21397).
T2 sequence (P21397 1-527): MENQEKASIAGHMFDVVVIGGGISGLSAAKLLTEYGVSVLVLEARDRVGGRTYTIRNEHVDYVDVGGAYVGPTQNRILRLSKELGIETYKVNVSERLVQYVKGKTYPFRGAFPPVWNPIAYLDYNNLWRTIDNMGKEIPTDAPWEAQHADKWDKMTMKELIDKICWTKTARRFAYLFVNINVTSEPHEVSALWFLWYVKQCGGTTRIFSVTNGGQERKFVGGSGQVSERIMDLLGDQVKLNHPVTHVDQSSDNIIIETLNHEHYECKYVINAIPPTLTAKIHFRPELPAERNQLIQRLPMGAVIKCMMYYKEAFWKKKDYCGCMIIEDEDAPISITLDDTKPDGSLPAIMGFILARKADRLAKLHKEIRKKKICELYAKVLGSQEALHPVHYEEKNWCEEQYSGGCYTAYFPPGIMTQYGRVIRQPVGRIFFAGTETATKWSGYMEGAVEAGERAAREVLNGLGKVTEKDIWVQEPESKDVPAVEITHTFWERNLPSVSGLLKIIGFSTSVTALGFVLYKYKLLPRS
As to the kind of experiment: MAO-A inhibition (Amplex Red continuous fluorescence assay). Type of experiment: biochemical. As to conditions: 30 min pre-incubation at room temp; substrate tyramine; read-out: Human MAO-A IC50. In a few lines: as §1
`NC/C(=C\F)COc1ccc(-c2ncon2)cc1` [Compound 43, (E)-2-((4-(1,2,4-oxadiazol-3-yl)phenoxy)methyl)-3-fluoroprop-2-en-1-amine hydrochloride]: the IC50 lay in the range of 3 to 10 µM.
Still for that read-out and setting: as for `CCNC(=O)Oc1ccc(OC/C(=C\F)CN)cc1` [Compound 56, (Z)-4-((2-(aminomethyl)-3-fluoroalkyl)oxy)phenyl ethylcarbamate], the figure is under 3 µM; as for `NC/C(=C\F)COc1ccc(-c2cocn2)cc1` [Compound 29, (E)-3-fluoro-2-((4-(oxazol-4-yl)phenoxy)methyl)prop-2-en-1-amine hydrochloride], under 3 µM; as for `CC(C)NC(=O)Nc1ccc(OC/C(=C/F)CN)cc1` [Compound 18, (E)-1-(4-((2-(aminomethyl)-3-fluoroalkyl)oxy)phenyl)-3-isopropylurea hydrochloride], under 3 µM.
On the same count and under the same terms, as for `NC/C(=C/F)CNC(=O)Nc1ccccc1` [Compound 72], the figure is under 3 µM; as for `NC/C(=C\F)COc1ccc(-c2ncco2)cc1` [Compound 25, (E)-3-fluoro-2-((4-(oxazol-2-yl)phenoxy)methyl)prop-2-en-1-amine hydrochloride], 3 to 10 µM; as for `NC/C(=C\F)COc1cccc2c1OCO2` [Compound 14, (E)-2-((benzo[d][1,3]dioxol-4-yloxy)methyl)-3-fluoroprop-2-en-1-amine hydrochloride], under 3 µM.

In another experiment the target is T3, Human MAO-B (Homo sapiens, UniProt P27338).
T3 sequence (P27338 1-520): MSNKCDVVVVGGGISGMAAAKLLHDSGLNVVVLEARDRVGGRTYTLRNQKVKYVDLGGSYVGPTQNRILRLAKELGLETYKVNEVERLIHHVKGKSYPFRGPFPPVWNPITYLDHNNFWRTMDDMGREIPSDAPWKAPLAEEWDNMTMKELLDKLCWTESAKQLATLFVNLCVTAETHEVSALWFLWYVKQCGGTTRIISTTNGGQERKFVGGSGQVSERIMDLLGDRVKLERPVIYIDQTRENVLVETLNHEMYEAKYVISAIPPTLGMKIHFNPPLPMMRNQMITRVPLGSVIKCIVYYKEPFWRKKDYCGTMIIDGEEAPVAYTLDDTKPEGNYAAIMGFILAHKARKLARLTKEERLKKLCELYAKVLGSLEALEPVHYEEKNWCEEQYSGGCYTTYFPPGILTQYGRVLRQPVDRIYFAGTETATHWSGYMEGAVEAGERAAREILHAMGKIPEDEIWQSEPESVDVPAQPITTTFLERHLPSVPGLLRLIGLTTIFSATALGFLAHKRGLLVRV
As to the kind of experiment: MAO-B inhibition (Amplex Red continuous fluorescence assay). Type of experiment: biochemical. As to conditions: 30 min pre-incubation at room temp; substrate benzylamine; read-out: Human MAO-B IC50. In a few lines:
as §1
`NC/C(=C\F)COc1ccc(-c2ncon2)cc1` [Compound 43, (E)-2-((4-(1,2,4-oxadiazol-3-yl)phenoxy)methyl)-3-fluoroprop-2-en-1-amine hydrochloride]: the IC50 was under 3 µM.
On the same count and under the same terms, as for `CCNC(=O)Oc1ccc(OC/C(=C\F)CN)cc1` [Compound 56, (Z)-4-((2-(aminomethyl)-3-fluoroalkyl)oxy)phenyl ethylcarbamate], the figure is under 3 µM; as for `NC/C(=C\F)COc1ccc(-c2cocn2)cc1` [Compound 29, (E)-3-fluoro-2-((4-(oxazol-4-yl)phenoxy)methyl)prop-2-en-1-amine hydrochloride], under 3 µM; as for `CC(C)NC(=O)Nc1ccc(OC/C(=C/F)CN)cc1` [Compound 18, (E)-1-(4-((2-(aminomethyl)-3-fluoroalkyl)oxy)phenyl)-3-isopropylurea hydrochloride], under 3 µM.
The same measure, in the same setting: with `NC/C(=C/F)CNC(=O)Nc1ccccc1` [Compound 72] the figure was over 10 µM.
Still for that read-out and setting: with `NC/C(=C\F)COc1ccc(-c2ncco2)cc1` [Compound 25, (E)-3-fluoro-2-((4-(oxazol-2-yl)phenoxy)methyl)prop-2-en-1-amine hydrochloride] the figure was under 3 µM; with `NC/C(=C\F)COc1cccc2c1OCO2` [Compound 14, (E)-2-((benzo[d][1,3]dioxol-4-yloxy)methyl)-3-fluoroprop-2-en-1-amine hydrochloride], under 3 µM.

Another experiment deals with T4, Human DAO (Homo sapiens, UniProt P19801).
T4 sequence (P19801 20-751): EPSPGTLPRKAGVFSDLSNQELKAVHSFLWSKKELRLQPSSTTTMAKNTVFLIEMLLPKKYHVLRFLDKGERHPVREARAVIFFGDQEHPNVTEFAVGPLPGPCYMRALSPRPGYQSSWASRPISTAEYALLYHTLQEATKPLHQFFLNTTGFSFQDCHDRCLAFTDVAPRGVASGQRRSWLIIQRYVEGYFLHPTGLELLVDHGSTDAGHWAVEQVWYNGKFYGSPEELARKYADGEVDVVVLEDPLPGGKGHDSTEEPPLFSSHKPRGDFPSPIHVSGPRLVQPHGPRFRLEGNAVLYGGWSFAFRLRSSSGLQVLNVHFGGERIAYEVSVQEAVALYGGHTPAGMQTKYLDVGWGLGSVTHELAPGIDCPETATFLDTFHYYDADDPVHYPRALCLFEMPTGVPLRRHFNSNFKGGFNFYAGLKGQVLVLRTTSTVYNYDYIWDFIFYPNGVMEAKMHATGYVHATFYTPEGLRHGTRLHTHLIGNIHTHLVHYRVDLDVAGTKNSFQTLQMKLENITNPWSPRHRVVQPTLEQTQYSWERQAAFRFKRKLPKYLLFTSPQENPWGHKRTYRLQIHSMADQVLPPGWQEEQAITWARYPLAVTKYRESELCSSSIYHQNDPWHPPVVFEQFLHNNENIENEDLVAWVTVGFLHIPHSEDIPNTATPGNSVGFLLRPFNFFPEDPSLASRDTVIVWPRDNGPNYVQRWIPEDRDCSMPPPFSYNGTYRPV
Put plainly: DAO inhibition (Amplex Red continuous fluorescence assay). Type of experiment: biochemical. Particulars: 30 min pre-incubation at room temp; substrate histamine; read-out: Human DAO IC50. The essentials: as §1
Consider `NC/C(=C\F)COc1ccc(-c2ncon2)cc1` [Compound 43, (E)-2-((4-(1,2,4-oxadiazol-3-yl)phenoxy)methyl)-3-fluoroprop-2-en-1-amine hydrochloride], for which the IC50 is under 3 µM.
As to `CCNC(=O)Oc1ccc(OC/C(=C\F)CN)cc1` [Compound 56, (Z)-4-((2-(aminomethyl)-3-fluoroalkyl)oxy)phenyl ethylcarbamate], the IC50 was under 3 µM.
Regarding `NC/C(=C\F)COc1ccc(-c2cocn2)cc1` [Compound 29, (E)-3-fluoro-2-((4-(oxazol-4-yl)phenoxy)methyl)prop-2-en-1-amine hydrochloride], the IC50 was under 3 µM.
For the compound `CC(C)NC(=O)Nc1ccc(OC/C(=C/F)CN)cc1` [Compound 18, (E)-1-(4-((2-(aminomethyl)-3-fluoroalkyl)oxy)phenyl)-3-isopropylurea hydrochloride], the IC50 lay within 3 to 10 µM.
The same measure, in the same setting: as for `NC/C(=C/F)CNC(=O)Nc1ccccc1` [Compound 72], the figure is under 3 µM.
On the same count and under the same terms, as for `NC/C(=C\F)COc1ccc(-c2ncco2)cc1` [Compound 25, (E)-3-fluoro-2-((4-(oxazol-2-yl)phenoxy)methyl)prop-2-en-1-amine hydrochloride], the figure is under 3 µM; as for `NC/C(=C\F)COc1cccc2c1OCO2` [Compound 14, (E)-2-((benzo[d][1,3]dioxol-4-yloxy)methyl)-3-fluoroprop-2-en-1-amine hydrochloride], 3 to 10 µM.
